Results on 2 molecules are retold here after US5242916A, “Method for treatment of neurodegenerative diseases” (R. J. Reynolds Tobacco Company, priority 1992, dated 1993).

pKi: −log10 of the molar value.

For orientation: pKi means the negative decadic logarithm of the Ki, by convention in mol/L.

For test [1], the target named is high affinity nicotinic receptors. In words: Inhibition of L-[3H]nicotine binding to mouse brain membrane preparations. The arrangement: species or system Mice (DBA strain). Conditions: mouse brain membranes, 2 hr at 4° C., 10 nM L-[3H]nicotine, Ki calculated from IC50 by the method of Cheng et al. As to the method:
Mice (DBA strain) were maintained on a 12 hour light/dark cycle and were allowed free access to water and food supplied by Wayne Lab Blox, Madison, Wis. Animals used in the present studies were 60 to 90 days of age and weighed 20 to 25 g. Brain membrane preparations were obtained from pooled brain tissue of both males and females.
Mice were killed by cervical dislocation. Brains were removed and placed on an ice-cold platform. […] Protein was determined by the method of Lowry, et al., J. Biol. Chem., Vol. 193, pp. 265-275 (1951), using bovine serum albumin as the standard.
The binding of L-[^3 H]nicotine was measured using a modification of the method of Romano, et al., Science, Vol. 210, pp. 647-650 (1980) as described previously by Marks, et al., Mol. Pharmacol., Vol. 30, pp. 427-436 (1986). The binding of L-[^3 H]nicotine was measured using a 2 hr. incubation at 4° C. […] Nonspecific binding was determined by inclusion of 10 μM nonradioactive nicotine in the incubations. The inhibition of L-[^3 H]nicotine binding by test compounds was determined by including one of eight different concentrations of the test compound in the incubation. […] Inhibition constants (Ki values) were calculated from the IC50 values using the method of Cheng, et al., Biochem. Pharmacol., Vol. 22, pp. 3099-3108 (1973). […]

Test [2] has as its system synaptosomes from the striatal area of rat brain. Kind of test: [3H]-Dopamine release from rat striatal synaptosomes. Format: biochemical, Sprague-Dawley rats. Conditions: Percent release relative to (S)(-)nicotine at equal concentration, 0.2 ml of a 10 μM solution of ligand. As to the method:
Dopamine release was measured by preparing synaptosomes from the striatal area of rat brain obtained from Sprague-Dawley rats generally according to the procedures set forth by Nagy, et al., J. Neurochem., Vol. 43, pp. 1114-1123 (1984). Striata from 4 rats were homogenized in 2 ml of 0.32M sucrose buffered with 5 mM HEPES (pH 7.5), using a glass-teflon tissue grinder. The homogenate was diluted to 5 ml with additional homogenization solution and centrifuged at 1000×g for 10 min. This procedure was repeated on the new pellet and the resulting supernatant was centrifuged at 12,000×g for 20 min. […] Using this method, 30 to 90 percent of the dopamine was taken up into the synaptosomes, as determined by scintillation counting following filtration through glass fiber filters soaked with 0.5 percent polyethyleneimine. […] After the addition of a 0.2 ml of a 10 μM solution of ligand, the perfusate was collected into scintillation vials at 1 min. intervals and the dopamine released was quantified by scintillation counting. Peaks of radioactivity released above background were summed and the average basal release during that time was subtracted from the total. Release was expressed as a percentage of release obtained with an equal concentration of (S)-(-)-nicotine.

For `CN1CC2CC(C1)c1cccc(=O)n1C2` (stereo not shown) [N-methylcytisine], the pKi in test [1] was 7.44. The “Dopamine Release” value in test [2] came to 29%.

On to `O=c1cccc2n1C[C@@H]1CNC[C@H]2C1` [cytisine], for which the pKi in test [1] is 9.40. The “Dopamine Release” value in test [2] amounted to 82%.
